Measurements: patent US20100166708A1, “ANTIMICROBIAL AND ANTI-INFLAMMATORY THERAPIES AND COMPOSITIONS” (THE REGENTS OF THE UNIVERSITY OF CALIFORNIA, priority 2007, published 2010)
Values after ≈ are worked out from the molar mass of the structure shown. Values joined by “and” are separate entries in the source; they are usually repeats but may differ in a detail not shown here. Equal values may be shown once. Read-outs that look alike come from different tables or passages of the source.

Experiments:
[1] = system: GAS membranes; experiment: SEM analysis of GAS membranes; format: cell-based, Group A Streptococcus; conditions: 16 μM peptide
[2] = Text: (§1) Tryptophan emission is a sensitive indicator for the physical environment surrounding the amino acid (˜330 nm in a folded or hydrophobic environment; ˜355 nm in an unfolded or aqueous environment).
[3] = remark: listed apart in the source
Text: Sequestration of tryptophan (Trp) can be observed through blue shift in wavelength of photon emission after excitation at 290 nm. […] (c) overlay of emission spectra.
as §1

[4] = system: GAS
[5] = ANTS/DPX leakage from lipid vesicles; conditions: incubated with lipid vesicles for 1 hour
Procedure: Both delta-haemolysin and PSMdelta were evaluated for their ability to perforate synthetic lipid vesicles. Lipid vesicles were made with a 2:1 molar ratio of POPC to POPG. The lipid vesicles, extruded through a 200 nm polycarbonate film, encapsulated the fluorescent dye, ANTS, and a quencher: DPX. Upon membrane perforation, ANTS/DPX are released and separated, allowing ANTS to fluoresce at 530 nm.

| Compound | membrane effect seen by SEM [1] | deltaG^1(H2O) ([2]; 5 μM peptide) | midpoint of the unfolding curve ([2]; 5 μM peptide) | deltaG^1(H2O) ([2]; 25 μM peptide) | midpoint of the unfolding curve ([2]; 25 μM peptide) | deltaG^1(H2O) ([2]; 25 μM peptide, figure legend) | tryptophan emission ([3]; before incubation with lipid vesicles) | tryptophan emission ([3]; incubation with lipid vesicles) | tryptophan emission ([3]; lipid vesicles plus urea) | MBC [4] | MIC [4] | MIC ([4]; listed as Synthetic delta-haemolysin) | MIC of delta-haemolysin in the presence of PSMdelta ([4]; with 2 μM PSMdelta) | ANTS fluorescence at 530 nm (vesicle leakage) [5] |
| --- | --- | --- | --- | --- | --- | --- | --- | --- | --- | --- | --- | --- | --- | --- |
| CRAMP [reference compound] | Membrane disruption | – | – | – | – | – | – | – | – | – | – | – | – | – |
| CC[C@H](C)[C@H](NC(=O)[C@H](Cc1c[nH]c2ccccc12)NC(=O)[C@H](CCCCN)NC(=O)[C@@H](NC(=O)[C@H](CC(C)C)NC(=O)[C@H](CC(=O)O)NC(=O)CNC(=O)[C@@H](NC(=O)[C@@H](NC(=O)[C@H](CO)NC(=O)[C@@H](NC(=O)[C@@H](NC(=O)[C@H](CC(=O)O)NC(=O)[C@H](C)NC(=O)[C@H](C)NC(=O)[C@@H](N)CCSC)[C@@H](C)CC)[C@@H](C)CC)[C@@H](C)O)[C@@H](C)CC)C(C)C)C(=O)N[C@H](C(=O)N[C@@H](CC(=O)O)C(=O)N[C@H](C(=O)N[C@H](C(=O)N[C@@H](CC(N)=O)C(=O)N[C@@H](CCCCN)C(=O)N[C@@H](Cc1ccccc1)C(=O)N[C@@H](CCCCN)C(=O)N[C@@H](CCCCN)C(=O)O)C(C)C)[C@@H](C)O)[C@@H](C)CC [delta-haemolysin] | membrane blebbing and disruption | 1.43 kcal/mol | 2.14 M urea | 1.57 kcal/mol | 3.20 M urea and 3.2 M urea | 1.57 kcal/mol | 339 nm | 332 nm | 335 nm | 16 µM (≈ 45.1 µg/mL) | 8 µM (≈ 22.6 µg/mL) | 16 µM (≈ 45.1 µg/mL) | 4 µM | Dose-dependent fluorescence |
| MSIVSTIIEVVKTIVDIVKKFKK (listed as Staphylococcus epidermidis) [PSMdelta, peptide identified in S. epidermidis fraction 37, tested as synthetic peptide] | – | – | – | – | – | – | – | – | – | – | – | – | – | Dose-dependent fluorescence |
